How the values were obtained:
Sox2 = assay: RT-PCR of Sox2 mRNA in treated MEFs; assay type: cell-based, mouse; conditions: versus vehicle
Experimental: (§1) MEFs were treated with vehicle control or OAC 1 to test whether OAC 1 activates endogenous Oct4 and Nanog gene transcription. […] Oct4, Sox2, and Nanog are central to the transcriptional regulatory hierarchy for ESC pluripotency, forming the core transcriptional regulatory circuitry in ESCs (37). […] OAC1 activated Sox2 mRNA expression, along with Oct4 and Nanog (FIG. 61).
(§2) RT-PCR analysis: Total RNA was purified with Trizol reagent (Invitrogen). Reverse transcription was performed with 1 μg of RNA using Omniscript® Reverse Transcription Kit (Qiagen). Quantitative PCR was performed using iTaq SYBR Green Supermix with Rox (Bio-rad) in Applied Biosystem Step one plus real-time PCR system. […]

p21 = assay: RT-PCR of p21 expression in treated MEFs; assay type: cell-based, mouse; conditions: MEFs treated for two days
Experimental: Inhibition of the p53-p21 signaling increased reprogramming efficiency (26, 28-31, 41). To investigate whether compound OAC1 enhanced reprogramming efficiency by affecting this pathway, MEFs were treated with vehicle control or OAC1 and determined the expression level of p53 and p21 in the treated cells.
as §2

Tet1 = assay: RT-PCR of Tet1 mRNA in treated MEFs; assay type: cell-based, mouse; conditions: versus vehicle
Experimental: The up-regulation of Tet1 is intriguing, as this is a gene that converts 5-methylcytosine to 5-hydroxymethylcytosine and may be involved in active DNA demethylation.
as §2

endogenous Oct4 = assay: RT-PCR of endogenous Oct4 mRNA in treated MEFs; assay type: cell-based, mouse; conditions: versus vehicle
Experimental: as §1, §2

human Nanog promoter = assay: Nanog-luc luciferase reporter assay (stably transfected CV1 cells); assay type: cell-based

O=C(Nc1cc2cc[nH]c2cn1)c1ccccc1 [OAC1, N-(1H-6-azaindol-5-yl)benzamide]
Sox2 mRNA expression (Sox2): activated
p21 expression level versus DMSO (p21): no significant difference
Tet1 mRNA expression (Tet1): up-regulated
endogenous Oct4 mRNA expression (endogenous Oct4): activated
activation of Nanog-luc at 50 nM (human Nanog promoter; 50 nM): substantial activation
fold induction at 1 µM (human Nanog promoter; Chlorocebus aethiops, CV-1, compound at 1 μM, Nanog-luc cells, triplicates): 4.5
induction of Nanog-luc, comparison with known reprogramming enhancers (in words) (human Nanog promoter; OAC1 1 μM, BIO 2 μM, BIX 2 μM, AzaC 2 μM, Vc 25 μg/ml, Am580 10 nM, tranylcypromine 5 μM, VPA 0.5 mM, two days): potent induction
activation of human Nanog reporter (in words) (human Nanog promoter; triplicate luciferase reporter assays): considerable activation

— patent publication US8962322B2, “Enhancers of induced pluripotent stem cell reprogramming” (City of Hope, priority 2012, dated 2015)
